Laboratory results as given in PubChem BioAssay AID248 (DTP/NCI, 2004).
Inconclusive results and toxic doses are left out. Rule as the data show it: active = T/C of 150% or more; inactive = T/C below 125%.

Test system: L1210 leukemia ip in BDF1 mice, survival T/C
Assay: NCI In Vivo Anticancer Drug Screen. Data for tumor model L1210 Leukemia (intraperitoneal) in B6D2F1 (BDF1) mice
Conditions: endpoint: mean survival time, higher = longer survival
Method in brief: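 Antitumor effect is assessed in tumor-bearing animals. Survival in the compound arm is compared with a vehicle-dosed control arm and expressed as their quotient.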

[1] = dose: 100.0 mg/kg/injection, schedule: Q04DX003 (ip), vehicle: saline with Tween-80
[2] = dose: 200.0 mg/kg/injection, schedule: Q04DX003 (ip), vehicle: saline with Tween-80
[3] = dose: 400.0 mg/kg/injection, schedule: Q04DX003 (ip), vehicle: saline with Tween-80
[4] = dose: 100.0 mg/kg/injection, schedule: Q01DX001 (ip), vehicle: saline
[5] = dose: 200.0 mg/kg/injection, schedule: Q01DX001 (ip), vehicle: saline
[6] = dose: 400.0 mg/kg/injection, schedule: Q01DX001 (ip), vehicle: saline
[7] = dose: 75.0 mg/kg/injection, schedule: Q01DX001 (ip), vehicle: saline
[8] = dose: 100.0 mg/kg/injection, schedule: Q04DX003 (ip), vehicle: saline
[9] = dose: 200.0 mg/kg/injection, schedule: Q04DX003 (ip), vehicle: saline
[10] = dose: 400.0 mg/kg/injection, schedule: Q04DX003 (ip), vehicle: saline
[11] = dose: 50.0 mg/kg/injection, schedule: Q01DX001 (ip), vehicle: carboxymethylcellulose (CMC)
[12] = dose: 100.0 mg/kg/injection, schedule: Q01DX001 (ip), vehicle: carboxymethylcellulose (CMC)
[13] = dose: 200.0 mg/kg/injection, schedule: Q01DX001 (ip), vehicle: carboxymethylcellulose (CMC)
[14] = dose: 400.0 mg/kg/injection, schedule: Q01DX001 (ip), vehicle: carboxymethylcellulose (CMC)
[15] = dose: 400.0 mg/kg/injection, schedule: Q04DX003 (ip), vehicle: Klucel (hydroxypropylcellulose) (HPC)
[16] = dose: 100.0 mg/kg/injection, schedule: Q01DX009 (ip), vehicle: saline with Tween-80
[17] = dose: 200.0 mg/kg/injection, schedule: Q01DX009 (ip), vehicle: saline with Tween-80
[18] = dose: 100.0 mg/kg/injection, schedule: Q04DX003 (ip), vehicle: Klucel (hydroxypropylcellulose) (HPC)
[19] = dose: 200.0 mg/kg/injection, schedule: Q04DX003 (ip), vehicle: Klucel (hydroxypropylcellulose) (HPC)
[20] = dose: 25.0 mg/kg/injection, schedule: Q01DX009 (ip), vehicle: Klucel (hydroxypropylcellulose) (HPC)
[21] = dose: 50.0 mg/kg/injection, schedule: Q01DX009 (ip), vehicle: Klucel (hydroxypropylcellulose) (HPC)
[22] = dose: 100.0 mg/kg/injection, schedule: Q01DX009 (ip), vehicle: Klucel (hydroxypropylcellulose) (HPC)
[23] = dose: 200.0 mg/kg/injection, schedule: Q01DX009 (ip), vehicle: Klucel (hydroxypropylcellulose) (HPC)
[24] = dose: 400.0 mg/kg/injection, schedule: Q01DX009 (ip), vehicle: Klucel (hydroxypropylcellulose) (HPC)

Measured: T/C

OC1CC2CC1C=C2c1ccccc1 (stereo unspecified)
inactive: [1] 102 % of control | [2] 86 % of control | [3] 91 % of control

Cc1ccccc1CO
inactive: dose: 50.0 mg/kg/injection, schedule: Q01DX001 (ip), vehicle: saline 97 % of control | [4] 97 % of control | [5] 97 % of control | [6] 100 % of control

C1COC(N2CC3CCC(CC3)C2)=N1
inactive: [7] 96 % of control | dose: 150.0 mg/kg/injection, schedule: Q01DX001 (ip), vehicle: saline 105 % of control

O=C(OCCO)c1ccccc1O
inactive: dose: 75.0 mg/kg/injection, schedule: Q01DX009 (ip), vehicle: saline sonified 102 % of control | [8] 102 % of control | dose: 150.0 mg/kg/injection, schedule: Q01DX009 (ip), vehicle: saline sonified 116 % of control | [9] 98 % of control | dose: 300.0 mg/kg/injection, schedule: Q01DX009 (ip), vehicle: saline sonified 108 % of control | [10] 102 % of control

NC(=S)N/N=C(/Cc1ccccc1)CC(O)(C(F)(F)F)C(F)(F)F
inactive: dose: 50.0 mg/kg/injection, schedule: Q01DX009 (ip), vehicle: gum acacia 92 % of control | dose: 100.0 mg/kg/injection, schedule: Q01DX009 (ip), vehicle: gum acacia 91 % of control | dose: 100.0 mg/kg/injection, schedule: Q04DX003 (ip), vehicle: gum acacia 94 % of control | dose: 200.0 mg/kg/injection, schedule: Q04DX003 (ip), vehicle: gum acacia 105 % of control

CCOCCOCCOC(C)Oc1cc(OC)ccc1OC (stereo unspecified)
inactive: dose: 100.0 mg/kg/injection, schedule: Q04DX002 (ip), vehicle: saline 107 % of control | dose: 200.0 mg/kg/injection, schedule: Q04DX002 (ip), vehicle: saline 93 % of control | dose: 400.0 mg/kg/injection, schedule: Q04DX002 (ip), vehicle: saline 101 % of control

Cc1cc(C(=O)c2ccccc2)ccc1O
inactive: [11] 100 % of control | [12] 96 % of control | [13] 91 % of control | [14] 96 % of control

CCCCCCCCCCCCCOc1ccc(Sc2ccc([N+](=O)[O-])cc2)cc1
inactive: [15] 88 % of control

C1=C(/c2ccccc2)CCCCCC/1
inactive: dose: 37.5 mg/kg/injection, schedule: Q01DX009 (ip), vehicle: saline 101 % of control | dose: 75.0 mg/kg/injection, schedule: Q01DX001 (ip), vehicle: acetone 98 % of control | dose: 75.0 mg/kg/injection, schedule: Q01DX009 (ip), vehicle: saline 90 % of control | dose: 150.0 mg/kg/injection, schedule: Q01DX001 (ip), vehicle: acetone 93 % of control | dose: 150.0 mg/kg/injection, schedule: Q01DX009 (ip), vehicle: saline 103 % of control | dose: 300.0 mg/kg/injection, schedule: Q01DX001 (ip), vehicle: acetone 91 % of control

CN(C)CCCN=Cc1cc(Cl)ccc1O.CN(C)CCCN=Cc1cc(Cl)ccc1O.[Ni+2]
inactive: dose: 6.25 mg/kg/injection, schedule: Q04DX003 (ip), vehicle: saline with Tween-80 92 % of control | dose: 12.5 mg/kg/injection, schedule: Q04DX003 (ip), vehicle: saline with Tween-80 105 % of control | dose: 25.0 mg/kg/injection, schedule: Q04DX003 (ip), vehicle: saline with Tween-80 97 % of control

CCOC(=O)c1c(C)cc(O)cc1O
inactive: [16] 114 % of control | [17] 106 % of control | dose: 400.0 mg/kg/injection, schedule: Q01DX009 (ip), vehicle: saline with Tween-80 102 % of control

COc1cc(OC)c(NC(=O)NCCCl)cc1Cl
inactive: [18] 104 % of control | [19] 106 % of control | [15] 97 % of control

CC1=CCC(C(C)C)C=C1 (stereo unspecified)
inactive: [20] 101 % of control | [21] 96 % of control | [22] 102 % of control | dose: 100.0 mg/kg/injection, schedule: Q01DX009 (ip), vehicle: saline 93 % of control | [8] 96 % of control | [23] 96 % of control | [9] 98 % of control | [10] 97 % of control

O=[N+]([O-])c1ccc(C(Br)C(Br)c2ccccc2Br)cc1 (stereo unspecified)
inactive: [22] 98 % of control | [8] 96 % of control | [23] 102 % of control | [9] 98 % of control | [24] 98 % of control | [10] 96 % of control

Cc1ncc(-c2ccc([N+](=O)[O-])cc2)o1
inactive: dose: 50.0 mg/kg/injection, schedule: Q04DX003 (ip), vehicle: Klucel (hydroxypropylcellulose) (HPC) 94 % of control | [18] 102 % of control | [19] 94 % of control

O=C1OC(=O)C23CC=CCC12CC=CC3 (stereo unspecified)
inactive: [11] 104 % of control | [12] 113 % of control | [13] 102 % of control | [14] 104 % of control

CC1=NC(=NC(=O)c2ccccc2)N=C1
inactive: [1] 97 % of control | [2] 96 % of control | [3] 96 % of control

OC1(C#CI)CCCCC1
inactive: [22] 100 % of control | [23] 96 % of control

CN(N=O)C(=O)NCc1ccc(Cl)cc1
inactive: dose: 9.0 mg/kg/injection, schedule: Q01DX Z (ip), vehicle: carboxymethylcellulose (CMC) 108 % of control | dose: 18.0 mg/kg/injection, schedule: Q01DX Z (ip), vehicle: carboxymethylcellulose (CMC) 91 % of control | dose: 37.0 mg/kg/injection, schedule: Q01DX Z (ip), vehicle: carboxymethylcellulose (CMC) 101 % of control | dose: 75.0 mg/kg/injection, schedule: Q01DX Z (ip), vehicle: carboxymethylcellulose (CMC) 111 % of control | dose: 100.0 mg/kg/injection, schedule: Q01DX Z (ip), vehicle: carboxymethylcellulose (CMC) 109 % of control | dose: 150.0 mg/kg/injection, schedule: Q01DX Z (ip), vehicle: carboxymethylcellulose (CMC) 118 % of control | dose: 200.0 mg/kg/injection, schedule: Q01DX Z (ip), vehicle: carboxymethylcellulose (CMC) 119 % of control

CCCCCCCCCC(=O)c1nc(N)nc(N)n1
inactive: dose: 50.0 mg/kg/injection, schedule: Q01DX009 (ip), vehicle: saline with Tween-80 105 % of control | [16] 105 % of control | [17] 97 % of control

CS(=O)(=O)c1ccc(/C=C2/C=Cc3ccccc32)cc1
inactive: [22] 95 % of control | [18] 96 % of control | [23] 103 % of control | [19] 96 % of control | [24] 95 % of control | [15] 98 % of control

Cn1ccc(CCl)n1
inactive: [8] 95 % of control | [9] 97 % of control

CC(=O)/C=C\c1ccc(Cl)cc1
inactive: [4] 106 % of control | [5] 98 % of control | [6] 106 % of control

O=[N+]([O-])c1ccc2c(c1)-c1ccccc1C1=NCCN12
inactive: dose: 20.0 mg/kg/injection, schedule: Q04DX003 (ip), vehicle: Klucel (hydroxypropylcellulose) (HPC) 91 % of control | [20] 105 % of control | dose: 40.0 mg/kg/injection, schedule: Q04DX003 (ip), vehicle: Klucel (hydroxypropylcellulose) (HPC) 96 % of control | [21] 102 % of control | dose: 80.0 mg/kg/injection, schedule: Q04DX003 (ip), vehicle: Klucel (hydroxypropylcellulose) (HPC) 102 % of control | [22] 105 % of control | [18] 101 % of control

CC(C)(COC(=O)c1ccc(N)cc1)NC1CCCCC1
inactive: [7] 96 % of control

O=[N+]([O-])CC(C[N+](=O)[O-])C(F)(F)C(F)(F)C(F)(F)F
inactive: dose: 100.0 mg/kg/injection, schedule: Q01DX001 (ip), vehicle: other 101 % of control

Cc1cc(C)c(OCC2CO2)c(C)c1 (stereo unspecified)
inactive: [18] 105 % of control | [19] 95 % of control | [15] 89 % of control

CC(C)(C(=O)O)c1ccccc1
inactive: dose: 100.0 mg/kg/injection, schedule: Q01DX001 (ip), vehicle: saline with Tween-80 96 % of control | dose: 200.0 mg/kg/injection, schedule: Q01DX001 (ip), vehicle: saline with Tween-80 96 % of control | dose: 400.0 mg/kg/injection, schedule: Q01DX001 (ip), vehicle: saline with Tween-80 96 % of control

NCC(=O)c1ccc(Cl)cc1
inactive: [4] 102 % of control | [5] 104 % of control
